Legend:
wheat = experiment: Test B pre/postemergence wheat; format: in vivo, Triticum aestivum; conditions: for Plant response rating, Wheat: Postemergence
Summary of the method: (§1)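 Test chemicals in a non-phytotoxic solvent mixture with surfactant were sprayed preemergence onto planted seeds and postemergence onto plants 2 to 18 cm tall (1- to 4-leaf stage). After twelve to sixteen days in a greenhouse, injury was visually rated against untreated controls from 0 (no effect) to 10 (complete control).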

sugar beet = experiment: Test B pre/postemergence sugar beet; format: in vivo, Beta vulgaris; conditions: for Plant response rating, Sugarbeets: Postemergence
Summary of the method: as §1

soybean = experiment: Test B pre/postemergence soybean; format: in vivo, Glycine max; conditions: for Plant response rating, Soybean: Postemergence
Summary of the method: as §1

bedstraw = experiment: Test B pre/postemergence bedstraw; format: in vivo, Galium aparine
Summary of the method: as §1

rape = experiment: Test B pre/postemergence rape; format: in vivo, Brassica napus
Summary of the method: as §1

wild oat = experiment: Test B pre/postemergence wild oat; format: in vivo, Avena fatua; conditions: for Plant response rating, Wild oats: Postemergence
Summary of the method: as §1

purple nutsedge = experiment: Test B pre/postemergence purple nutsedge; format: in vivo, Cyperus rotundus
Summary of the method: as §1

giant foxtail = experiment: Test B pre/postemergence giant foxtail; format: in vivo, Setaria faberii
Summary of the method: as §1

velvetleaf = experiment: Test B pre/postemergence velvetleaf; format: in vivo, Abutilon theophrasti; conditions: for Plant response rating, Velvetleaf: Postemergence
Summary of the method: as §1

pigweed = experiment: Test B pre/postemergence pigweed; format: in vivo, Amaranthus retroflexus; conditions: for Plant response rating, Redroot pigweed: Postemergence; for Plant response rating, Redroot pigweed / Redroot pigweed plant response rating: scale of 0 to 10 where 0 is no effect and 10 is complete control
Summary of the method: as §1

blackgrass = experiment: Test B pre/postemergence blackgrass; format: in vivo, Alopecurus myosuroides
Summary of the method: as §1

morningglory = experiment: Test B pre/postemergence morningglory; format: in vivo, Ipomoea hederacea
Summary of the method: as §1

corn = experiment: Test B pre/postemergence corn; format: in vivo, Zea mays
Summary of the method: as §1

surinam grass = experiment: Test B pre/postemergence surinam grass; format: in vivo, Brachiaria decumbens
Summary of the method: as §1

cocklebur = experiment: Test B pre/postemergence cocklebur; format: in vivo, Xanthium strumarium
Summary of the method: as §1

crabgrass = experiment: Test B pre/postemergence crabgrass; format: in vivo, Digitaria sanguinalis
Summary of the method: as §1

[1] = Rate 125 g/ha, scale of 0 to 10 where 0 is no effect and 10 is complete control
[2] = Rate 500 g/ha, scale of 0 to 10 where 0 is no effect and 10 is complete control
[3] = Preemergence, Rate 62 g/ha, scale 0 to 10 (0 no effect, 10 complete control)
[4] = Preemergence, Rate 125 g/ha, scale of 0 to 10 where 0 is no effect and 10 is complete control
[5] = Preemergence, Rate 500 g/ha, scale of 0 to 10 where 0 is no effect and 10 is complete control
[6] = Rate 250 g/ha, scale of 0 to 10 where 0 is no effect and 10 is complete control
[7] = Postemergence, Rate 62 g/ha, scale of 0 to 10, 0 is no effect, 10 is complete control
[8] = Postemergence, Rate 125 g/ha, scale of 0 to 10 where 0 is no effect and 10 is complete control
[9] = Postemergence, Rate 500 g/ha, scale of 0 to 10 where 0 is no effect and 10 is complete control
[10] = Rate 250 g/ha, Postemergence, scale of 0 to 10 where 0 is no effect and 10 is complete control

For `CC(C)N(C(=O)n1oc(=O)n(CCCCF)c1=O)c1ccccc1` [Compound 581], the “Plant response rating, Wheat” value (wheat; [1]) was 4, the “Plant response rating, Wheat” value (wheat; [2]) was 4 and the “Wheat plant response rating” value (wheat; [3]) was 0. For the same compound, the “Wheat plant response rating” value (wheat; [4]) was 0, the “Wheat plant response rating (0 to 10 scale)” value (wheat; Preemergence, Rate 250 g/ha) was 2 and the “Wheat plant response rating” value (wheat; [5]) was 5. For the same compound, the “Plant response rating, Wheat” value (wheat; [6]) was 4, the “Plant response rating, Sugarbeets” value (sugar beet; [1]) was 5 and the “Plant response rating, Sugarbeets” value (sugar beet; [2]) was 8. The “Sugarbeets plant response rating” value (sugar beet; [3]) was 0, the “Sugarbeets plant response rating” value (sugar beet; [4]) was 0 and the “Sugarbeets plant response rating (0 to 10 scale)” value (sugar beet; Preemergence, Rate 250 g/ha) was 0. For the same compound, the “Sugarbeets plant response rating” value (sugar beet; [5]) was 9, the “Plant response rating, Sugarbeets” value (sugar beet; [6]) was 7 and the “Plant response rating, Soybean” value (soybean; [1]) was 4. The “Plant response rating, Soybean” value (soybean; [2]) was 5, the “Soybean plant response rating” value (soybean; [3]) was 0 and the “Soybean plant response rating” value (soybean; [4]) was 0. For the same compound, the “Soybean plant response rating (0 to 10 scale)” value (soybean; Preemergence, Rate 250 g/ha) was 5, the “Soybean plant response rating” value (soybean; [5]) was 7 and the “Plant response rating, Soybean” value (soybean; [6]) was 4. The “Bedstraw plant response rating” value (bedstraw; [7]) was 0, the “Plant response rating, Bedstraw” value (bedstraw; [8]) was 8 and the “Plant response rating, Bedstraw” value (bedstraw; [9]) was 9. For the same compound, the “Bedstraw plant response rating” value (bedstraw; [3]) was 8, the “Bedstraw plant response rating” value (bedstraw; [4]) was 9 and the “Bedstraw plant response rating (0 to 10 scale)” value (bedstraw; Preemergence, Rate 250 g/ha) was 7. The “Bedstraw plant response rating” value (bedstraw; [5]) was 9, the “Rape plant response rating” value (rape; [7]) was 0 and the “Plant response rating, Rape” value (rape; [8]) was 7. The “Plant response rating, Rape” value (rape; [9]) was 7, the “Rape plant response rating” value (rape; [3]) was 0 and the “Rape plant response rating” value (rape; [4]) was 0. For the same compound, the “Rape plant response rating (0 to 10 scale)” value (rape; Preemergence, Rate 250 g/ha) was 2, the “Rape plant response rating” value (rape; [5]) was 7 and the “Plant response rating, Rape” value (rape; [10]) was 7. The “Plant response rating, Wild oats” value (wild oat; [1]) was 5, the “Plant response rating, Wild oats” value (wild oat; [2]) was 5 and the “Wild oats plant response rating” value (wild oat; [3]) was 0. The “Wild oats plant response rating” value (wild oat; [4]) was 0, the “Wild oats plant response rating (0 to 10 scale)” value (wild oat; Preemergence, Rate 250 g/ha) was 0 and the “Wild oats plant response rating” value (wild oat; [5]) was 8. The “Plant response rating, Wild oats” value (wild oat; [6]) was 5, the “Nutsedge plant response rating” value (purple nutsedge; [7]) was 0 and the “Nutsedge plant response rating” value (purple nutsedge; [3]) was 0. For the same compound, the “Nutsedge plant response rating” value (purple nutsedge; [4]) was 0, the “Nutsedge plant response rating (0 to 10 scale)” value (purple nutsedge; Preemergence, Rate 250 g/ha) was 4 and the “Nutsedge plant response rating” value (purple nutsedge; [5]) was 8. The “Giant foxtail plant response rating” value (giant foxtail; [7]) was 7, the “Plant response rating, Giant foxtail” value (giant foxtail; [8]) was 8 and the “Plant response rating, Giant foxtail” value (giant foxtail; [9]) was 9. The “Giant foxtail plant response rating” value (giant foxtail; [3]) was 4, the “Giant foxtail plant response rating” value (giant foxtail; [4]) was 10 and the “Giant foxtail plant response rating (0 to 10 scale)” value (giant foxtail; Preemergence, Rate 250 g/ha) was 9. For the same compound, the “Giant foxtail plant response rating” value (giant foxtail; [5]) was 10, the “Plant response rating, Giant foxtail” value (giant foxtail; [10]) was 8 and the “Plant response rating, Velvetleaf” value (velvetleaf; [1]) was 4. The “Plant response rating, Velvetleaf” value (velvetleaf; [2]) was 6, the “Velvetleaf plant response rating” value (velvetleaf; [3]) was 5 and the “Velvetleaf plant response rating” value (velvetleaf; [4]) was 5. The “Velvetleaf plant response rating (0 to 10 scale)” value (velvetleaf; Preemergence, Rate 250 g/ha) was 5, the “Velvetleaf plant response rating” value (velvetleaf; [5]) was 10 and the “Plant response rating, Velvetleaf” value (velvetleaf; [6]) was 6. The “Plant response rating, Redroot pigweed” value (pigweed; Rate 125 g/ha) was 8, the “Plant response rating, Redroot pigweed” value (pigweed; Rate 500 g/ha) was 9 and the “Redroot pigweed plant response rating” value (pigweed; Preemergence, Rate 125 g/ha) was 5. For the same compound, the “Redroot pigweed plant response rating (0 to 10 scale)” value (pigweed; Preemergence, Rate 250 g/ha) was 9, the “Redroot pigweed plant response rating” value (pigweed; Preemergence, Rate 500 g/ha) was 10 and the “Plant response rating, Redroot pigweed” value (pigweed; Rate 250 g/ha) was 8. The “Blackgrass plant response rating” value (blackgrass; [7]) was 4, the “Plant response rating, Blackgrass” value (blackgrass; [8]) was 4 and the “Plant response rating, Blackgrass” value (blackgrass; [9]) was 4. For the same compound, the “Blackgrass plant response rating” value (blackgrass; [3]) was 0, the “Blackgrass plant response rating” value (blackgrass; [4]) was 0 and the “Blackgrass plant response rating (0 to 10 scale)” value (blackgrass; Preemergence, Rate 250 g/ha) was 0. For the same compound, the “Blackgrass plant response rating” value (blackgrass; [5]) was 7, the “Plant response rating, Blackgrass” value (blackgrass; [10]) was 4 and the “Morningglory plant response rating” value (morningglory; [7]) was 4. For the same compound, the “Plant response rating, Morningglory” value (morningglory; [8]) was 8, the “Plant response rating, Morningglory” value (morningglory; [9]) was 10 and the “Morningglory plant response rating” value (morningglory; [3]) was 0. The “Morningglory plant response rating” value (morningglory; [4]) was 2, the “Morningglory plant response rating (0 to 10 scale)” value (morningglory; Preemergence, Rate 250 g/ha) was 4 and the “Morningglory plant response rating” value (morningglory; [5]) was 6. The “Plant response rating, Morningglory” value (morningglory; [10]) was 7, the “Corn plant response rating” value (corn; [7]) was 2 and the “Plant response rating, Corn” value (corn; [8]) was 4. The “Plant response rating, Corn” value (corn; [9]) was 6, the “Corn plant response rating” value (corn; [3]) was 0 and the “Corn plant response rating” value (corn; [4]) was 2. For the same compound, the “Corn plant response rating (0 to 10 scale)” value (corn; Preemergence, Rate 250 g/ha) was 7, the “Corn plant response rating” value (corn; [5]) was 9 and the “Plant response rating, Corn” value (corn; [10]) was 5. The “B. signalgrass plant response rating” value (surinam grass; [7]) was 5, the “Plant response rating, B. signalgrass” value (surinam grass; [8]) was 5 and the “Plant response rating, B. signalgrass” value (surinam grass; [9]) was 8. The “B. signalgrass plant response rating” value (surinam grass; [3]) was 0, the “B. signalgrass plant response rating” value (surinam grass; [4]) was 0 and the “B. signalgrass plant response rating (0 to 10 scale, 0 is no effect, 10 is complete control)” value (surinam grass; Preemergence, Rate 250 g/ha) was 2. The “B. signalgrass plant response rating” value (surinam grass; [5]) was 9, the “Plant response rating, B. signalgrass” value (surinam grass; [10]) was 7 and the “Cocklebur plant response rating” value (cocklebur; [7]) was 2. The “Plant response rating, Cocklebur” value (cocklebur; [9]) was 3, the “Cocklebur plant response rating” value (cocklebur; [3]) was 0 and the “Cocklebur plant response rating” value (cocklebur; [4]) was 0. For the same compound, the “Cocklebur plant response rating (0 to 10 scale)” value (cocklebur; Preemergence, Rate 250 g/ha) was 0, the “Cocklebur plant response rating” value (cocklebur; [5]) was 0 and the “Plant response rating, Cocklebur” value (cocklebur; [10]) was 3. The “Crabgrass plant response rating” value (crabgrass; [7]) was 3, the “Plant response rating, Crabgrass” value (crabgrass; [8]) was 7 and the “Plant response rating, Crabgrass” value (crabgrass; [9]) was 9. For the same compound, the “Crabgrass plant response rating” value (crabgrass; [3]) was 4, the “Crabgrass plant response rating” value (crabgrass; [4]) was 9 and the “Crabgrass plant response rating (0 to 10 scale)” value (crabgrass; Preemergence, Rate 250 g/ha) was 8. The “Crabgrass plant response rating” value (crabgrass; [5]) was 9 and the “Plant response rating, Crabgrass” value (crabgrass; [10]) was 7.
